From patent US20190315823A1, “SMALL CATIONIC ANTI-BIOFILM AND IDR PEPTIDES” (priority 2013, published 2019) come the findings set out here.

Where two headings read alike, the source gives them in different places. Marks after values point to notes of the source that are not given here. Peptide text beside a SMILES is read from it.

What all share (type): cell-based
One experiment concerns P. aeruginosa biofilm. The protocol: (§1) Methods of assessment of anti-biofilm activity—Biofilm formation was initially analyzed using a static abiotic solid surface assay as described elsewhere (de la Fuente-Nunez et al., 2012). […] Planktonic cells were removed, biofilm cells adhering to the side of the tubes were stained with crystal violet, and absorbance at 595 nm was measured using a microtiter plate reader (Bio-Tek Instruments Inc., United States). Some peptides were screened against two Gram negative organisms, P. aeruginosa and K. pneumoniae using a Bioflux apparatus (AutoMate Scientific, Berkeley, Calif.; http://www.autom8.com/bioflux_biofilm.html), which allows for the high-throughput, real-time analysis of biofilms.

The next experiment concerns S. aureus biofilm. On the procedure:
as §1

Experiment [1] has as its system human peripheral blood mononuclear cells (MCP-1). Nature of the experiment: SPOT-synthesized derivative screen: production of chemokine MCP-1. The settings on record: Table 12A, No LPS; for MCP1: background subtracted (21.3 pg/ml). The essentials:
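PBMC from heparinized healthy-donor venous blood, Ficoll-separated, cultured at 0.75 to 1×10^6 cells/ml, 37 °C, 5% CO2, under the treatment regimens. MCP-1 in cell-free supernatants measured by capture ELISA.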

Experiment [2] relates to LPS-stimulated human peripheral blood mononuclear cells (IL1-β). Particulars: Table 12A, cells stimulated with 10 ng/ml LPS; for Fold change in IL1β relative to no peptide LPS stimulated cells: 1002-2013 compared to LPS control of 889 pg/ml; for IL1β Production / IL1β Production (pg/ml): LPS alone 984 pg/ml, starred values (1002-2013) determined separately, LPS alone 889 pg/ml.

Setting [3] is: concentration that reduced biofilm growth by 50%.

Turning to `CC[C@H](C)[C@H](NC(=O)[C@H](CCCNC(=N)N)NC(=O)[C@@H](NC(=O)[C@H](CCCCN)NC(=O)[C@@H](NC(=O)[C@@H](NC(=O)[C@@H](NC(=O)[C@H](CCCNC(=N)N)NC(=O)[C@@H](N)C(C)C)C(C)C)[C@@H](C)CC)C(C)C)C(C)C)C(=O)N[C@@H](CCCNC(=N)N)C(=O)N[C@@H](CCCNC(=N)N)C(=O)N[C@@H](CCCNC(=N)N)C(N)=O` [Peptide 2004] (H-VRVIVKVRIRRR-NH2; N-terminus assumed), in the experiment with P. aeruginosa biofilm (setting [3]), the “MBIC50 P. aeruginosa” value was 2.5 µg/mL. The “MBIC50 S. aureus” value in the experiment on S. aureus biofilm (setting [3]) was 20 µg/mL. For the same compound, in experiment [1], the “Fold increase in MCP1 cf. untreated cells” value (“Fold increase” below) was 340 and the “MCP1” value came out at 7226 pg/mL. Further, in experiment [2], the “Fold change in IL1β relative to no peptide LPS stimulated cells” value is reported as 0.56 and the “IL1β Production” value was determined as 549 pg/mL.

`CC[C@H](C)[C@H](NC(=O)[C@H](CCCNC(=N)N)NC(=O)[C@@H](NC(=O)[C@H](CCCNC(=N)N)NC(=O)[C@@H](NC(=O)[C@@H](NC(=O)[C@H](CC(C)C)NC(=O)[C@H](CCCNC(=N)N)NC(=O)[C@@H](N)C(C)C)[C@@H](C)CC)C(C)C)C(C)C)C(=O)N[C@@H](Cc1c[nH]c2ccccc12)C(=O)N[C@@H](CCCNC(=N)N)C(=O)N[C@@H](CCCNC(=N)N)C(N)=O` [Peptide 2005] (H-VRLIVRVRIWRR-NH2; N-terminus assumed): the “MBIC50 P. aeruginosa” value with P. aeruginosa biofilm (setting [3]) worked out at 2.5 µg/mL. Further, in the experiment on S. aureus biofilm (setting [3]), the “MBIC50 S. aureus” value came to 10 µg/mL. In addition, in experiment [1], the “Fold increase” value worked out at 837 and the “MCP1” value was 17826 pg/mL. In experiment [2], the “Fold change in IL1β relative to no peptide LPS stimulated cells” value stood at 0.10 and the “IL1β Production” value worked out at 101 pg/mL.

Turning to `CC[C@H](C)[C@H](NC(=O)[C@H](CCCNC(=N)N)NC(=O)[C@@H](NC(=O)[C@H](C)NC(=O)[C@@H](NC(=O)[C@@H](NC(=O)[C@H](CC(C)C)NC(=O)[C@H](CCCNC(=N)N)NC(=O)[C@@H](N)C(C)C)[C@@H](C)CC)C(C)C)C(C)C)C(=O)N[C@@H](CCCNC(=N)N)C(=O)N[C@@H](CCCNC(=N)N)C(=O)N[C@@H](CCCNC(=N)N)C(N)=O` [Peptide 2002] (H-VRLIVAVRIRRR-NH2; N-terminus assumed), the “MBIC50 P. aeruginosa” value with P. aeruginosa biofilm (setting [3]) came to 2.5 µg/mL. In addition, the “MBIC50 S. aureus” value with S. aureus biofilm (setting [3]) was found to be 20 µg/mL. Further, in experiment [1], the “Fold increase” value is 152 and the “MCP1” value came to 3215 pg/mL. Moreover, in experiment [2], the “Fold change in IL1β relative to no peptide LPS stimulated cells” value is on record as 0.30 and the “IL1β Production” value amounted to 293 pg/mL.

`CC[C@H](C)[C@H](NC(=O)[C@@H](NC(=O)[C@H](CCCCN)NC(=O)[C@@H](NC(=O)[C@H](CCCNC(=N)N)NC(=O)[C@H](CCCNC(=N)N)NC(=O)[C@@H](NC(=O)[C@H](CCCNC(=N)N)NC(=O)[C@H](CCC(N)=O)NC(=O)[C@@H](N)Cc1c[nH]c2ccccc12)C(C)C)C(C)C)C(C)C)C(=O)N[C@@H](CCCNC(=N)N)C(=O)N[C@@H](CCCCN)C(N)=O` [Peptide 2013] (H-WQRVRRVKVIRK-NH2; N-terminus assumed): in the experiment on P. aeruginosa biofilm (biofilm), the “MBIC50 P. aeruginosa” value stood at 20 µg/mL. In addition, the “MBIC50 S. aureus” value in the experiment with S. aureus biofilm (biofilm) was above 80 µg/mL. Further, in experiment [1], the “Fold increase” value worked out at 31 and the “MCP1” value is 645 pg/mL. In addition, in experiment [2], the “Fold change in IL1β relative to no peptide LPS stimulated cells” value came to 0.93 and the “IL1β Production (pg/ml)” value was 830* pg/ml.

Regarding `CC[C@H](C)[C@H](NC(=O)[C@H](CCCNC(=N)N)NC(=O)[C@@H](NC(=O)[C@H](CCCCN)NC(=O)[C@@H](NC(=O)[C@@H](NC(=O)[C@H](CC(C)C)NC(=O)[C@H](CCCNC(=N)N)NC(=O)[C@@H](N)C(C)C)[C@@H](C)CC)C(C)C)C(C)C)C(=O)N[C@@H](CCCNC(=N)N)C(=O)N[C@@H](CCCNC(=N)N)C(=O)N[C@@H](CCCNC(=N)N)C(N)=O` [Peptide 2003] (H-VRLIVKVRIRRR-NH2; N-terminus assumed), the “MBIC50 P. aeruginosa” value with P. aeruginosa biofilm (setting [3]) was found to be 2.5 µg/mL. Further, in the experiment with S. aureus biofilm (setting [3]), the “MBIC50 S. aureus” value is 20 µg/mL. In addition, in experiment [1], the “Fold increase” value came to 509 and the “MCP1” value turned out to be 10848 pg/mL. Moreover, in experiment [2], the “Fold change in IL1β relative to no peptide LPS stimulated cells” value was determined as 1.07 and the “IL1β Production” value amounted to 1051 pg/mL.

`CC[C@H](C)[C@H](NC(=O)[C@H](CCCNC(=N)N)NC(=O)[C@@H](NC(=O)[C@H](CCCCN)NC(=O)[C@@H](NC(=O)[C@@H](NC(=O)[C@H](Cc1c[nH]c2ccccc12)NC(=O)[C@H](CCCNC(=N)N)NC(=O)[C@@H](N)C(C)C)[C@@H](C)CC)C(C)C)C(C)C)C(=O)N[C@@H](CCCNC(=N)N)C(=O)N[C@@H](CCCNC(=N)N)C(=O)N[C@@H](CCCNC(=N)N)C(N)=O` [Peptide 2006] (H-VRWIVKVRIRRR-NH2; N-terminus assumed): in the experiment on P. aeruginosa biofilm (setting [3]), the “MBIC50 P. aeruginosa” value came to 20 µg/mL. Moreover, the “MBIC50 S. aureus” value in the experiment on S. aureus biofilm (setting [3]) was 10 µg/mL. In experiment [1], the “Fold increase” value came to 316 and the “MCP1” value came out at 6714 pg/mL. Further, in experiment [2], the “Fold change in IL1β relative to no peptide LPS stimulated cells” value is on record as 0.33 and the “IL1β Production” value is 322 pg/mL.

For `CC[C@H](C)[C@H](NC(=O)[C@H](CCCNC(=N)N)NC(=O)[C@@H](NC(=O)[C@H](CCCCN)NC(=O)[C@@H](NC(=O)[C@@H](NC(=O)[C@H](CC(C)C)NC(=O)[C@H](CCCNC(=N)N)NC(=O)[C@@H](N)CCCNC(=N)N)[C@@H](C)CC)C(C)C)C(C)C)C(=O)N[C@@H](Cc1c[nH]c2ccccc12)C(=O)N[C@@H](CCCNC(=N)N)C(=O)N[C@@H](CCCNC(=N)N)C(N)=O` [Peptide 2007] (H-RRLIVKVRIWRR-NH2; N-terminus assumed), the “MBIC50 P. aeruginosa” value in the experiment on P. aeruginosa biofilm (biofilm) worked out at 5 µg/mL. Moreover, the “MBIC50 S. aureus” value in the experiment on S. aureus biofilm (biofilm) stood at 10 µg/mL. In experiment [1], the “Fold increase” value stood at 386 and the “MCP1” value was found to be 7954 pg/mL. Further, in experiment [2], the “Fold change in IL1β relative to no peptide LPS stimulated cells” value was found to be 0.88 and the “IL1β Production” value was found to be 867 pg/mL.

`CC[C@H](C)[C@H](NC(=O)[C@H](CCCNC(=N)N)NC(=O)[C@@H](NC(=O)[C@H](CCCCN)NC(=O)[C@@H](NC(=O)[C@@H](NC(=O)[C@H](CC(C)C)NC(=O)[C@H](CCCNC(=N)N)NC(=O)[C@@H](N)C(C)C)[C@@H](C)CC)C(C)C)C(C)C)C(=O)N[C@@H](Cc1c[nH]c2ccccc12)C(=O)N[C@@H](CCCNC(=N)N)C(=O)N[C@@H](CCCNC(=N)N)C(N)=O` [Peptide 2001] (H-VRLIVKVRIWRR-NH2; N-terminus assumed): the “MBIC50 P. aeruginosa” value in the experiment on P. aeruginosa biofilm (setting [3]) came to 2.5 µg/mL. The “MBIC50 S. aureus” value with S. aureus biofilm (setting [3]) was 10 µg/mL. In addition, in experiment [1], the “Fold increase” value is reported as 765 and the “MCP1” value amounted to 16300 pg/mL. Moreover, in experiment [2], the “Fold change in IL1β relative to no peptide LPS stimulated cells” value worked out at 0.08 and the “IL1β Production” value came out at 76 pg/mL.

For `CC[C@H](C)[C@H](NC(=O)[C@H](CCCNC(=N)N)NC(=O)[C@H](Cc1c[nH]c2ccccc12)NC(=O)[C@H](CCCNC(=N)N)NC(=O)[C@@H](NC(=O)[C@H](CC(C)C)NC(=O)[C@H](CC(C)C)NC(=O)[C@H](CCCNC(=N)N)NC(=O)[C@H](Cc1c[nH]c2ccccc12)NC(=O)[C@@H](N)CCCCN)[C@@H](C)CC)C(=O)N[C@@H](CCC(N)=O)C(=O)N[C@@H](CCCCN)C(N)=O` [Peptide 2009] (H-KWRLLIRWRIQK-NH2; N-terminus assumed), the “MBIC50 P. aeruginosa” value in the experiment with P. aeruginosa biofilm (biofilm) was determined as 2.5 µg/mL. Also, in experiment [1], the “Fold increase” value stood at 586 and the “MCP1” value came to 12475 pg/mL. For the same compound, in experiment [2], the “Fold change in IL1β relative to no peptide LPS stimulated cells” value is on record as 0.08 and the “IL1β Production (pg/ml)” value is 74* pg/ml.
